Measured values taken from ChEMBL document CHEMBL1155189, “Bioactivity-guided isolation of cytotoxic constituents from stem-bark of Premna tomentosa” (Bioorg Med Chem Lett, 2009).
Converted amounts (≈) assume the structure as drawn.

How the values were obtained:
Type in all cases: functional, cell-based
A-431 = experiment: Cytotoxicity against human A431 cells after 48 hrs by MTT assay
HepG2 = experiment: Cytotoxicity against human HepG2 cells after 48 hrs by MTT assay
MCF7 = experiment: Cytotoxicity against human MCF7 cells after 48 hrs by MTT assay; conditions: MCF7, 48 h
A549 = experiment: Cytotoxicity against human A549 cells after 48 hrs by MTT assay; conditions: A549, 48 h
HT-29 = experiment: Cytotoxicity against human HT-29 cells after 48 hrs by MTT assay
[1] = Homo sapiens, HepG2, 48 h, read-out: IC50
[2] = Homo sapiens, HT-29, 48 h, read-out: IC50

Row | SMILES | IC50 (A-431) | IC50 (HepG2; [1]) | IC50 (MCF7) | IC50 (A549) | IC50 (HT-29; [2]) | IC50 (HepG2; hepg2) | IC50 (HT-29; ht-29)
1 | CC(CO)c1cc2c(c(O)c1O)C[C@@]1(O)CCCC(C)(C)[C@@H]1CC2 (stereo not given in full) | Not Active | 18.6 µg/mL (≈ 55.7 µM) | 16 µg/mL (≈ 47.7 µM) | 18.6 µg/mL (≈ 55.7 µM) | 16.2 µg/mL (≈ 48.5 µM) |  | 
2 | CC(CO)c1cc(O)c2c(c1)[C@@H](O)C[C@H]1C(C)(C)CCC[C@]1(O)C2 (stereo not given in full) | Not Active | 34.4 µg/mL (≈ 103 µM) | 15.8 µg/mL (≈ 47.4 µM) | 21.4 µg/mL (≈ 63.9 µM) | 14.6 µg/mL (≈ 43.6 µM) |  | 
3 | CC(CO)c1cc(O)c2c(c1)CC[C@H]1C(C)(C)CCC[C@]1(O)C2 (stereo not given in full) | Not Active |  | 80.8 µg/mL (≈ 254 µM) | 43.6 µg/mL (≈ 137 µM) |  | Not Active | Not Active
